ChEMBL document CHEMBL1123342 (J Med Chem, 1986)

target: Pancreatic elastase (Sus scrofa, UniProt P08419+P00772); assay: Compound is evaluated for the inhibition of porcine pancreatic (PP) elastase; assay type: protein

Going from `COC(=O)CCC(=O)N[C@@H](C)C(=O)N[C@@H](C)C(=O)N1CCC[C@H]1C(=O)CN(C(=O)Sc1nnnn1-c1ccccc1)C(C)C` to `COC(=O)CCC(=O)N[C@@H](C)C(=O)N[C@@H](C)C(=O)N1CCC[C@H]1C(=O)CN(C(=O)Sc1nnnn1C)C(C)C`, the Ki rises from 2.4 µM to 19.5 µM (8.1-fold).

`COC(=O)CCC(=O)N[C@@H](C)C(=O)N[C@@H](C)C(=O)N1CCC[C@H]1C(=O)CN(C(=O)Oc1ccccc1)C(C)C` and `COC(=O)CCC(=O)N[C@@H](C)C(=O)N[C@@H](C)C(=O)N1CCC[C@H]1C(=O)CN(C(=O)Oc1ccc([N+](=O)[O-])cc1)C(C)C` are within 1.5-fold of each other in Ki: 31.5 µM for the first, 42.5 µM for the second.

Compared with `COC(=O)CCC(=O)N[C@@H](C)C(=O)N[C@@H](C)C(=O)N1CCC[C@H]1C(=O)CN(C(=O)Oc1c(F)c(F)c(F)c(F)c1F)C(C)C`, `COC(=O)CCC(=O)N[C@@H](C)C(=O)N[C@@H](C)C(=O)N1CCC[C@H]1C(=O)CN(C(=O)OCC(F)(F)C(F)(F)C(F)(F)F)C(C)C` is 2.3-fold higher in Ki: 35 µM for the first, 82.1 µM for the second.
